The values below come from patent US8114408B2 (priority 2007, dated 2012).

For this test, the system named is mice. The conditions noted are these: mouse, in vivo, sc.

Take 3 (RRQRRF) [compound 3]: the “immune response in immunized mice (ELISA, FIG. 2)” value was “either an immune response occurred only in some individuals or a weak immune response was shown”.
